Calls of active or inactive are those of the source. No cut-off for these calls is given here.
Key:
[1] = system: Mus musculus; assay: Effect on food intake in chronic high-fat diet (2.5 w/w cholesterol, 0.5% w/w cholic acid, 10% w/w peanut oil) fed SKH-2 mouse at 56 umol/kg, ip bid for 30 days; assay type: ADME, organism-based; details: in vivo, 720 h
[2] = system: Mus musculus; assay: Effect on body weight in chronic high-fat diet (2.5 w/w cholesterol, 0.5% w/w cholic acid, 10% w/w peanut oil) fed SKH-2 mouse at 56 umol/kg, ip bid for 30 days; assay type: ADME, organism-based; details: in vivo, 720 h
[3] = system: Mus musculus; assay: Effect on blood glucose level in chronic high-fat diet (2.5 w/w cholesterol, 0.5% w/w cholic acid, 10% w/w peanut oil) fed SKH-2 mouse at 56 umol/kg, ip bid for 30 days; assay type: ADME, organism-based; details: in vivo, 720 h
[4] = system: Mus musculus; assay: Antidyslipidemic activity in chronic high-fat diet (2.5 w/w cholesterol, 0.5% w/w cholic acid, 10% w/w peanut oil) fed SKH-2 mouse assessed as HDL/LDL ratio in plasma at 56 umol/kg, ip bid for 30 days measured on day 30 (reference value: 0.2 no unit); assay type: functional
[5] = system: Mus musculus; assay: Antiatherosclerotic activity in apoE-/- transgenic mouse assessed as decrease in primary atherosclerotic lesions administered for 3.5 months; assay type: functional, organism-based
[6] = system: Mus musculus; assay: Hepatotoxicity in apoE-/- transgenic mouse assessed as liver enzymes level administered for 3.5 months; assay type: toxicity, organism-based; details: in vivo
[7] = Antioxidant activity in rat liver microsome membrane assessed as inhibition of lipid peroxidation after 45 mins by TBARS-based spectrophotometric assay; assay type: functional, microsomes
[8] = system: Radical scavenging activity; assay: Antioxidant activity assessed as DPPH radical scavenging activity up to 50 uM measured within 15 mins; assay type: functional
[9] = system: Radical scavenging activity; assay: Antioxidant activity assessed as DPPH radical scavenging activity after 30 mins; assay type: functional
[10] = target: T1, Squalene synthase (Rattus norvegicus) (UniProt Q02769); assay: (§1) Inhibition of squalene synthase in rat liver microsomes assessed as decrease in conversion of [3H]FPP to squalene
T1 sequence (whole entry): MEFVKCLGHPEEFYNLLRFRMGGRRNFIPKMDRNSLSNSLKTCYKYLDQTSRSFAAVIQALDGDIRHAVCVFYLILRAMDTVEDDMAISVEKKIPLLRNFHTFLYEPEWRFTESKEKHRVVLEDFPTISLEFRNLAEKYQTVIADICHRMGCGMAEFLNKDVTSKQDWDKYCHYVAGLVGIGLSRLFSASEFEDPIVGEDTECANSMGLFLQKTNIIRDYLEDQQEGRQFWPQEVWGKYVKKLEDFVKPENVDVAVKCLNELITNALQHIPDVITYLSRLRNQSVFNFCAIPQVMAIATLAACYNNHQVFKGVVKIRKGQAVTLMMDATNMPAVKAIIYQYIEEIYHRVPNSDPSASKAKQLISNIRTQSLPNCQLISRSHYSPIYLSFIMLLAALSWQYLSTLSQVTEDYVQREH

[11] = target: T2, Squalene synthase (Rattus norvegicus, UniProt Q02769); assay: as §1
T2 sequence (Q02769 whole entry): T1 sequence (whole entry)

[12] = target: T3, Prostaglandin G/H synthase 1 (Bos taurus) (UniProt O62664); assay: Inhibition of bovine COX-1 assessed as PGF2-alpha formation using arachidonic acid as substrate at 20 uM by enzyme immunoassay
T3 sequence (whole entry): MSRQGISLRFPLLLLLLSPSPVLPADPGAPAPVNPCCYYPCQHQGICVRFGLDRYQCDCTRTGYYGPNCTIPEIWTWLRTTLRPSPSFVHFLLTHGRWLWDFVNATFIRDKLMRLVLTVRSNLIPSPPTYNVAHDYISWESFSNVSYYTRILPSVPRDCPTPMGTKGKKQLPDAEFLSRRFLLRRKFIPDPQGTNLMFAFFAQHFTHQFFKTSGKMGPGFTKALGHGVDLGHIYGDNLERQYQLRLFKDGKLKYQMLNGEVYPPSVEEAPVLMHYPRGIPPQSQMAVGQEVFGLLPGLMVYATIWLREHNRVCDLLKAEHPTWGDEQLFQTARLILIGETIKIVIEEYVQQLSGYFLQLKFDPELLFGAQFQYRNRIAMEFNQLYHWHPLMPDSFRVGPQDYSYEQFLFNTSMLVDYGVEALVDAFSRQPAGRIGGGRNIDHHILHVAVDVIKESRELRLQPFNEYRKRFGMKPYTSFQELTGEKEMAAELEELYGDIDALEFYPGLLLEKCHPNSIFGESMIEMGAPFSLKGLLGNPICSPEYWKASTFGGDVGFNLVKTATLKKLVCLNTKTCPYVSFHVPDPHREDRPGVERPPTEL

[13] = system: Glycine max; assay: Inhibition of soybean lipoxygenase using sodium linoleate as substrate up to 100 uM measured for 6 mins
[14] = system: Rattus norvegicus; assay: In vivo antidyslipidemic activity against Triton WR 1339-induced hyperlipidemic Wistar rat model assessed as decrease in total cholesterol level in plasma at 56 umol/kg, ip administered as single dose 1 hr after Triton WR 1339 challenge measured after 24 hrs; assay type: functional
[15] = system: Rattus norvegicus; assay: In vivo antidyslipidemic activity against Triton WR 1339-induced hyperlipidemic Wistar rat model assessed as decrease in LDL-cholesterol level in plasma at 56 umol/kg, ip administered as single dose 1 hr after Triton WR 1339 challenge measured after 24 hrs; assay type: functional
[16] = system: Rattus norvegicus; assay: In vivo antidyslipidemic activity against Triton WR 1339-induced hyperlipidemic Wistar rat model assessed as decrease in triglyceride level in plasma at 56 umol/kg, ip administered as single dose 1 hr after Triton WR 1339 challenge measured after 24 hrs; assay type: functional
[17] = system: Mus musculus; assay: Antidyslipidemic activity in chronic high-fat diet (2.5 w/w cholesterol, 0.5% w/w cholic acid, 10% w/w peanut oil) fed SKH-2 mouse assessed as decrease in total cholesterol level in plasma at 56 umol/kg, ip bid for 21 days; assay type: functional; details: SKH-2, Plasma, 504 h
[18] = system: Mus musculus; assay: Antidyslipidemic activity in chronic high-fat diet (2.5 w/w cholesterol, 0.5% w/w cholic acid, 10% w/w peanut oil) fed SKH-2 mouse assessed as decrease in LDL level in plasma at 56 umol/kg, ip bid for 21 days; assay type: functional; details: SKH-2, Plasma, 504 h
[19] = system: Mus musculus; assay: Antidyslipidemic activity in chronic high-fat diet (2.5 w/w cholesterol, 0.5% w/w cholic acid, 10% w/w peanut oil) fed SKH-2 mouse assessed as decrease in total cholesterol level in plasma at 56 umol/kg, ip bid for 30 days measured on day 30; assay type: functional; details: SKH-2, Plasma, 720 h
[20] = system: Mus musculus; assay: Antidyslipidemic activity in chronic high-fat diet (2.5 w/w cholesterol, 0.5% w/w cholic acid, 10% w/w peanut oil) fed SKH-2 mouse assessed as decrease in LDL level in plasma at 56 umol/kg, ip bid for 30 days measured on day 30; assay type: functional; details: SKH-2, Plasma, 720 h
[21] = system: Mus musculus; assay: Antidyslipidemic activity in chronic high-fat diet (2.5 w/w cholesterol, 0.5% w/w cholic acid, 10% w/w peanut oil) fed SKH-2 mouse assessed as increase in HDL level in plasma at 56 umol/kg, ip bid for 30 days measured on day 30; assay type: functional
[22] = system: Mus musculus; assay: Antidyslipidemic activity in chronic high-fat diet (2.5 w/w cholesterol, 0.5% w/w cholic acid, 10% w/w peanut oil) fed SKH-2 mouse assessed as triglyceride level in plasma at 56 umol/kg, ip bid for 30 days measured on day 30; assay type: functional, organism-based

IC50 [7]: 0.47 µM
IC50 [9]: 191 µM
inhibition [10]: Dose-dependent effect
IC50 [11]: 5 µM
inhibition [12]: 92%
inhibition [13]: inactive
SMILES: CN1CCOC(O)(c2ccc3c(c2)Nc2ccccc2S3)C1 (racemic)
Activity [1]: Non-toxic
Activity [2]: Non-toxic
Activity [3]: Non-toxic
Ratio [4]: 1.2
inhibition [5]: Active
Activity [6]: Non-toxic
Activity [8]: Active
inhibition in vivo at 56 µmol/kg [14]: 70%
inhibition in vivo at 56 µmol/kg [15]: 80%
inhibition in vivo at 56 µmol/kg [16]: 94%
inhibition in vivo at 56 µmol/kg [17]: 45%
inhibition in vivo at 56 µmol/kg [18]: 58%
inhibition in vivo at 56 µmol/kg [19]: 53%
inhibition in vivo at 56 µmol/kg [20]: 76%
Activity [21]: 120%
Activity [22]: inactive

Reference: ChEMBL document CHEMBL3232866, “Design of novel potent antihyperlipidemic agents with antioxidant/anti-inflammatory properties: exploiting phenothiazine's strong antioxidant activity” (J Med Chem, 2014)
